Columns and labels:
[1] = biological target: T1, Orexin type 1 (OX1R) receptor (Homo sapiens, UniProt O43613); assay: In vitro orexin antagonism assay: intracellular calcium measurement (FLIPR), orexin-A 3 nM as agonist; type: cell-based; settings: for IC50: first value of IC50/Kb cell; for inhibition at 1 µM: read-out: OX1R, % Inh. @ 1 uM; for Kb: second value of IC50/Kb cell
T1 construct: expressed in transfected cells; host or cells: CHO cells (G418 selection)
T1 sequence (O43613 1-425): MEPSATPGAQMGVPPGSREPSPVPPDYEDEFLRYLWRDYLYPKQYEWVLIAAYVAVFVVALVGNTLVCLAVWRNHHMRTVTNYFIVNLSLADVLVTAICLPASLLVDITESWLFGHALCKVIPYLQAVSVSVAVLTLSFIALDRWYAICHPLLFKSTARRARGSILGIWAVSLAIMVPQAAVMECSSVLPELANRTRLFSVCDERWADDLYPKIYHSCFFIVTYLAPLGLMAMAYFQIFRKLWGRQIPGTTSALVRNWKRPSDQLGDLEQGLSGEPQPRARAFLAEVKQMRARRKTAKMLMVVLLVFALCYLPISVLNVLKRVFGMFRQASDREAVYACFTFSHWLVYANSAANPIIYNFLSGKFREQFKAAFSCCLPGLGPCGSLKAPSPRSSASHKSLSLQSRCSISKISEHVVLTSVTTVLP
In short: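 CHO cells expressing the human orexin receptor were loaded with 3 μM fluo-4 AM plus 5 mM probenecid, then exposed to antagonist for 120 min before 3 nM orexin-A (final) was added on a FLIPR.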

[2] = biological target: T2, human orexin-2 receptor (OX2R) (Homo sapiens, UniProt O43614); assay: as above; type: cell-based; settings: for IC50: first value of IC50/Kb cell; for inhibition at 1 µM: read-out: OX2R, % Inh. @ 1 uM; for Kb: second value of IC50/Kb cell
T2 construct: expressed in transfected cells; host or cells: CHO cells (G418 selection)
T2 sequence (O43614 1-444): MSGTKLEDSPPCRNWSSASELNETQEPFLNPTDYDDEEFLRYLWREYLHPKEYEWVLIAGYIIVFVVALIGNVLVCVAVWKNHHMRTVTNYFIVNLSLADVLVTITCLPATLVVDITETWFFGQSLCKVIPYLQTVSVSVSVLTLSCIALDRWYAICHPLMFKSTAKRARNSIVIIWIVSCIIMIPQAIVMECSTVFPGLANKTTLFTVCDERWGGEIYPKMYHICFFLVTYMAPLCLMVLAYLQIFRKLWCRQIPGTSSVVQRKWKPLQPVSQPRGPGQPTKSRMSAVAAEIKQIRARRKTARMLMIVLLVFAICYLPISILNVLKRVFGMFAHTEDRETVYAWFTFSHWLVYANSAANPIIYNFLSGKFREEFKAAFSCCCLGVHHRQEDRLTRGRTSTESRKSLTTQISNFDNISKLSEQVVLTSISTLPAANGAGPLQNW
In short: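 Fluorescence peak on 3 nM orexin-A challenge, read by FLIPR and compared with vehicle, yields IC50 (geometric mean when repeated; may be normalized to an on-plate reference). Antagonists were added 120 min beforehand to fluo-4-loaded recombinant CHO cells expressing human OX1R or OX2R.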

[3] = biological target: T3, human k-opioid receptor (kOR) (Homo sapiens, UniProt P41145); assay: Human k-opioid (KOP) receptor (agonist radioligand [3H]U-69593) binding assay, transfected RBL cell membranes; settings: for inhibition at 1 µM: read-out: KOR % Inh. @ 1 uM; for IC50: first value of IC50/Ki cell
T3 construct: expressed in transfected cells; host or cells: RBL cells (membrane homogenates)
Description: Human k-Opioid (KOP) Receptor (Agonist Radioligand) Binding Assay
Purpose: Evaluation of the affinity of compounds for the human k-opioid receptor in transfected RBL cells determined in a radioligand binding assay.
Experimental protocol: Cell membrane homogenates (about 80 μg protein) are incubated for 60 min at 22° C. with 0.5 nM [3H]U-69593 in the absence or presence of the test compound in a buffer containing 50 mM Tris-HCl (pH 7.4), 10 mM MgCl2 and 1 mM EDTA. Nonspecific binding is determined in the presence of 10 μM naloxone. Following incubation, the samples are filtered rapidly under vacuum through glass fiber filters ([…], Packard) presoaked with 0.3% PEI and rinsed several times with ice-cold 50 mM Tris-HCl using a 96-sample cell harvester (Unifilter, Packard). The filters are dried then counted for radioactivity in a scintillation counter (Topcount, Packard) using a scintillation cocktail (Microscint 0, Packard). The results are expressed as a percent inhibition of the control radioligand specific binding. The standard reference compound is U-50488, which is tested in each experiment at several concentrations to obtain a competition curve from which its IC50 is calculated.

T3 sequence (P41145 whole entry): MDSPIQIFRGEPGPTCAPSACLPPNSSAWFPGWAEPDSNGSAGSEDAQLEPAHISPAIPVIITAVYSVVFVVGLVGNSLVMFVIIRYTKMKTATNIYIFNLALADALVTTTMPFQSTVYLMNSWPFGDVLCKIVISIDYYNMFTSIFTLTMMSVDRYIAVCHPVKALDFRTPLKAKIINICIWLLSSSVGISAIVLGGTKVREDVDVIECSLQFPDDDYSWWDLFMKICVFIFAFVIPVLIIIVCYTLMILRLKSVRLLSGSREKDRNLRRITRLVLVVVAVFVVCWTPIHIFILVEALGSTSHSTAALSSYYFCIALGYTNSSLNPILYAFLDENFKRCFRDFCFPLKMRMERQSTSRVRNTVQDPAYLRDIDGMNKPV

IC50 [1] | inhibition at 1 µM [1] | Kb [1] | IC50 [2] | inhibition at 1 µM [2] | Kb [2] | inhibition at 1 µM [3] | SMILES | OX1R, % Inh. @ 1 uM [1] | OX2R, % Inh. @ 1 uM [2] | KOR % Inh. @ 1 uM [3] | IC50 [3] | Ki ([3]; second value of IC50/Ki cell)
9 nM | 100% | 2 nM | 110 nM | 98% | 19 nM | 53% | O=C(c1nn2c(c1-c1ccccc1)OCCC2)N1CCC[C@H]1Cn1ccc(-c2ccccc2)n1 [Example 130] | – | – | – | – | –
520 nM | 83% | 110 nM | – | 5% | – | 23% | C[C@@]1(Cn2ccc(-c3ccccn3)n2)CCCN1C(=O)c1nn2c(c1-c1ccccc1)COCC2 [Example 154] | – | – | – | – | –
39 nM | 100% | 8 nM | – | 52% | – | 0% | O=C(c1nc2ccccn2c1-c1ccccn1)N1CCC[C@H]1Cn1cc(-c2ccc(F)cn2)cn1 [Example 208] | – | – | – | – | –
31 nM | 97% | 7 nM | – | 39% | – | 2% | O=C(c1nn2c(c1-c1ccccn1)OCCC2)N1CCC[C@H]1Cn1cc(-c2ccccn2)cn1 [Example 197] | – | – | – | – | –
570 nM | 89% | 120 nM | – | 13% | – | 28% | C[C@@]1(Cn2ccc(-c3ccccn3)n2)CCCN1C(=O)c1nc2ccccn2c1-c1ccccc1 [Example 149] | – | – | – | – | –
23 nM | 97% | 5 nM | – | 50% | – | 6% | O=C(c1c(-c2ccccn2)nn2ccccc12)N1CCC[C@H]1Cc1nc(-c2ccccn2)no1 [Example 156] | – | – | – | – | –
4 nM | 100% | 1 nM | 190 nM | 59% | 32 nM | 14% | O=C(c1c(-c2ccccc2)nn2cccnc12)N1CCC[C@H]1Cn1ccc(-c2ccccn2)n1 [Example 140] | – | – | – | – | –
7 nM | 94.8% | 1 nM | – | 25.3% | – | 38% | O=C(c1c(-c2ccccc2)nn2c1COCC2)N1CCCC[C@H]1COc1ccc(C(F)(F)F)cn1 [Example 46] | – | – | – | – | –
230 nM | 78% | 49 nM | – | 23% | – | 3% | O=C(c1c(-c2ccccc2)nn2c1COCC2)N1[C@@H]2CC[C@@H](C2)[C@H]1COc1ccc(C(F)(F)F)cn1 [Example 87] | – | – | – | – | –
37 nM | 97% | 8 nM | 360 nM | 66% | 63 nM | 22% | O=C(c1c(-c2ccccc2)nn2ccccc12)N1[C@@H]2CC[C@@H](C2)[C@H]1COc1ccc(C(F)(F)F)cn1 [Example 88] | – | – | – | – | –
64 nM | 87% | 14 nM | – | 14% | – | 3% | O=C(c1nn2c(c1-c1ccccn1)OCCC2)N1[C@H](Cn2ccc(-c3ccc(F)cn3)n2)C[C@@H]2C[C@@H]21 [Example 202] | – | – | – | – | –
10 nM | 99% | 2 nM | – | 51% | – | 15% | O=C(c1nc2ccccn2c1-c1ccccc1)N1CCC[C@H]1Cn1cc(-c2ccc(F)cn2)cn1 [Example 122] | – | – | – | – | –
8 nM | 100% | 2 nM | 260 nM | 82% | 45 nM | 3% | O=C(c1nn2ccccc2c1-c1ccccn1)N1CCC[C@H]1Cn1cc(-c2ccccn2)cn1 [Example 173] | – | – | – | – | –
120 nM | 93% | 26 nM | – | 46% | – | 2% | C[C@@]1(COc2ccc(C(F)(F)F)cn2)CCCN1C(=O)c1c(-c2ccccc2)nn2cccnc12 [Example 158] | – | – | – | – | –
46 nM | 80% | 10 nM | 300 nM | 63% | 52 nM | 22% | O=C(c1c(-c2ccccc2)nn2ccccc12)N1CCC[C@H]1Cc1nc(-c2ccc(F)cn2)no1 [Example 120] | – | – | – | – | –
– | 100% | – | – | 40% | – | 4% | O=C(c1nn2ccccc2c1-c1ccccn1)N1CCC[C@H]1COc1ccc(C(F)(F)F)cn1 [Example 172] | – | – | – | – | –
11 nM | 81% | 2 nM | 275 nM | 67% | 38 nM | 37% | O=C(c1c(-c2ccccc2F)nn2ccccc12)N1CCC[C@H]1COc1ccc(C(F)(F)F)cn1 [Example 64] | – | – | – | – | –
5 nM | 100% | 1 nM | – | 45% | – | 35% | O=C(c1nc2ccccn2c1-c1ccccc1)N1CCC[C@H]1Cn1cc(-c2ccccn2)cn1 [Example 118] | – | – | – | – | –
8 nM | 100% | 2 nM | 63 nM | 82% | 11 nM | 0% | O=C(c1c(-c2ccccn2)nn2ccccc12)N1CCC[C@H]1Cn1ccc(-c2ccccn2)n1 [Example 139] | – | – | – | – | –
210 nM | 98% | 45 nM | – | 31% | – | 3% | C[C@@]1(COc2ccc(C(F)(F)F)cn2)CCCN1C(=O)c1nn2ccccc2c1-c1ccccc1 [Example 143] | – | – | – | – | –
650 nM | 60% | 140 nM | – | 38% | – | 51% | O=C(c1nn2ccccc2c1-c1ccccc1)N1CC[C@H]1Cn1ccc(-c2ccc(F)cn2)n1 [Example 115] | – | – | – | – | –
5 nM | 100% | 1 nM | – | 31% | – | 17% | O=C(c1nc2ccccn2c1-c1ccccc1)N1CCC[C@H]1Cc1nc(-c2ccc(F)cn2)no1 [Example 127] | – | – | – | – | –
2 nM | 100% | 0.3 nM | 150 nM | 69% | 26 nM | 19% | O=C(c1nn2ccccc2c1-c1ccccc1)N1CCC[C@H]1Cc1nc(-c2ccc(F)cn2)no1 [Example 117] | – | – | – | – | –

SMILES | IC50 [1] | inhibition at 1 µM [1] | Kb [1] | IC50 [2] | inhibition at 1 µM [2] | Kb [2] | inhibition at 1 µM [3] | OX1R, % Inh. @ 1 uM [1] | OX2R, % Inh. @ 1 uM [2] | KOR % Inh. @ 1 uM [3] | IC50 [3] | Ki ([3]; second value of IC50/Ki cell)
O=C(c1c(-c2ccccc2F)nn2ccccc12)N1CCC[C@H]1Cn1ccc(-c2ccc(F)cc2)n1 [Example 63] | 4 nM | – | 0.8 nM | 6 nM | – | 0.9 nM | – | 98% | 100% | 75% | 280000 nM | –
O=C(c1nn2c(c1-c1ccccn1)COCC2)N1CCC[C@H]1Cn1cc(-c2ccc(F)cn2)cn1 [Example 198] | 140 nM | – | 29 nM | – | – | – | – | 84% | 50% | 8% | – | –
O=C(c1c(-c2ccc(F)cc2)nc2ccccn12)N1CCC[C@H]1Cn1ccc(-c2ccc(F)cc2)n1 [Example 61] | 29 nM | – | 6 nM | 76 nM | – | 10 nM | – | 85% | 73% | 74% | 280 nM | 150 nM

Reference: patent publication US20260070922A1, “PYRAZOLE AND IMIDAZOLE DERIVATIVES AS DUAL OREXIN AND KAPPA-OPIOID RECEPTORS MODULATORS COMPOSITION, METHODS FOR TREATING NEUROLOGICAL AND PSYCHIATRIC DISORDERS” (HAGER BIOSCIENCES, LLC, priority 2022, published 2026)
